From patent US10054581B1, “Inhibitors of notch signaling pathway and use thereof in treatment of cancers” (Ecole Polytechnique Federale de Lausanne (EPFL), priority 2011, dated 2018) come the findings set out here.

This experiment has as its system Notch signalling via DL4:N1 ligand-receptor pair (Notch1). Description: DL4:N1 coculture assay, Notch driven luciferase reporter. Format: cell-based, mouse. The note with it: DL4-N1 coculture assay; for Notch inhibitory activity of derivatives compared to parental compound I3: FIG. 10. The text has this:
Mouse DL4-IRES dsRED cDNA was cloned into a pENTR1 vector (Invitrogen®) and finally shuttled into a destination lentivirus vector using Gateway cloning strategy (Invitrogen). A Phosphoglycerate kinase (PGK) promoter drove the expression of DL4 protein. DL4-lentiviral particles were produced in 293T cells by cotransfection of DL4-lentivirus vector, Gag/pol expression plasmid and plasmid encoding for viral envelope proteins. To overexpress Notch1 protein, mouse full length Notch1 cDNA was a cloned in a pCDNA3.1-IRES-puromycin vector. Notch1 cDNA was cloned upstream of IRES-puromycin between HindIII and XbaI restriction sites. A CMV promoter controlled the expression of Notch1 protein.
To measure the Notch signalling activation, CSL/RBP-jk consensus DNA binding sequences were cloned in a head to tail conformation in the pGL4 luciferase vector (Promega), thus named 12×CSL/RBP-jjk luciferase vector. In order to determine the Notch pathway activation in chemical compound screening assay, 12×CSL/RBP-jk consensus DNA binding sequences were cloned into pGL4.26.luciferase vector (Promega). As an internal control for transfection efficiency, SV40 Renilla vector was used (Promega).
In order to generate DL4 and N1 stable cell lines, HeLa cell were bought from ATCC (catalog # CCL-2). To generate DL4 stable lines, cells were transduced with DL4-lentiviral particles. DL4 stable clones were selected using puromycin. High DL4 expressing clones were sorted using antibodies against DL4 with Fluorescence activated cell sorting (FACS). To generate N1 stable line, cell were transfected with a pCDNA3.1+(Invitrogen) plasmid containing mouse full length Notch1 under the control of CMV promoter. To select for Notch1 expressing clones, an IRES puromycin cassette was cloned downstream of Notch1 cDNA. HeLa cells expressing high levels of Notch1 were enriched by FACS using anti-Notch1 antibodies. DL4- and N1-HeLa cells were cultured in DMEM (GIBCO, Invitrogen), 10% FCS and 10 ug/ml of puromycin (Sigma).
For chemical library screen, the coculture assay was performed as follows. N1-HeLa cells were cotransfected in 10 cm tissue culture dishes with 16 μg of pGL4.26. 12×CSL.luciferase vector/plate, 4 μg of Notch1 expression plasmid/plate, and 200 ng of SV40 Renilla vector/plate. DL4- and N1-HeLa cells were detached from the plate by using 0.5 mM EDTA (1×PBS). The both cell populations were counted and mixed in 1:1 ratio (5,000:5,000 cells/well in a 384 well plate) and dispensed into 384 well plates (white, clear bottom, Corning) using multidrop Combi plate dispenser. The assay plates were pre-dispensed (using automated Biomek 3000 liquid handler) with chemical compound libraries (Microsource NIMDS, Maybridge Hitfinder and Prestwick) to give a final concentration of 10 μM. The final assay volume was 22 μls. Twenty-four hours later, growth media was aspirated and cells were lysed with 1× Passive lysis buffer for 10 minutes at room temperature. Luciferase activity was measured using Luciferase Assay Reagent II and Renilla values were determined by using Stop and Glow reagent (Dual luciferase assay system, Cat #E1980, Promega). Luciferase and renilla readouts were taken using Tecan® F500 (Tecan) multiplate reader. All the liquid handling steps (aspiration of the medium, dispensing of Passive lysis buffer, Luciferase Assay Reagent II and Stop and Glow reagents) were performed using ELF406 liquid handler.
In order to identify novel modulators of the Notch pathway, Applicants have established a coculture assay in which DL4 ligand expressing HeLa cells were cultured with N1 HeLa cells, thereby activating the Notch pathway. The use of a DL4 and N1 HeLa cell coculture system mimics physiological conditions of cell-cell communication between ligand and receptor expressing cells. The in vitro generation of a controlled receptor-ligand assay system allowed Applicants to modify and monitor the Notch signal intensity by γ-secretase inhibitors. […]

Structures are written as SMILES. Entries after “also recorded” stand apart in the source; their conditions may differ.

Take `Nc1ccc(Oc2ccc(C3CCCCC3)cc2)nc1` [I3-A, 6-(4-cyclohexylphenoxy)pyridin-3-amine]: the “ability to block Notch pathway activation in coculture assay (screening of derivatives)” value (from here on “ability”) is reported as “ability to block Notch pathway activation in coculture assay” and the “Notch inhibitory activity of derivatives compared to parental compound I3” value was “block Notch signalling to comparable levels to parental compound I3; also recorded: exhibit anti-Notch activity comparable to 6-(4-Tert-Butylphenoxy)Pyridin-3-Amine (I3)”.
For `CCC(C)(C)c1ccc(Oc2ccc(N)cn2)cc1` [I3-B, 6-(4-(tert-Pentyl)phenoxy)pyridin-3-amine], in that order: “ability to block Notch pathway activation in coculture assay” and “block Notch signalling to comparable levels to parental compound I3; also recorded: exhibit anti-Notch activity comparable to 6-(4-Tert-Butylphenoxy)Pyridin-3-Amine (I3)”.
For the molecule `CC(C)(C)c1ccc(Oc2ccc(N)cc2)cc1` [I3-C, 4-(4-(tert-butyl)phenoxy)aniline], the “ability” value is recorded as “ability to block Notch pathway activation in coculture assay” and the “Notch inhibitory activity of derivatives compared to parental compound I3” value is reported as “block Notch signalling to comparable levels to parental compound I3; also recorded: exhibit anti-Notch activity comparable to 6-(4-Tert-Butylphenoxy)Pyridin-3-Amine (I3)”.
As to `CCCCc1ccc(Oc2ccc(N)cn2)cc1` [I3-D, 6-(4-Butylphenoxy)pyridin-3-amine], the “ability” value is given as “ability to block Notch pathway activation in coculture assay”.
Regarding `CCC(C)(C)c1ccc(Oc2ccc(N)cc2)cc1` [I3-E, 4-(4-(tert-pentyl)phenoxy)aniline], the “ability” value is listed as “ability to block Notch pathway activation in coculture assay” and the “Notch inhibitory activity of derivatives compared to parental compound I3” value is “block Notch signalling to comparable levels to parental compound I3; also recorded: exhibit anti-Notch activity comparable to 6-(4-Tert-Butylphenoxy)Pyridin-3-Amine (I3)”.
With `Nc1ccc(Oc2ccc(C3CCCCC3)cc2)cc1` [I3-F, 4-(4-cyclohexylphenoxy)aniline], the “ability” value is listed as “ability to block Notch pathway activation in coculture assay” and the “Notch inhibitory activity of derivatives compared to parental compound I3” value is “appear to have enhanced activity”.
For `Nc1ccc(Oc2ccc(C34CC5CC(CC(C5)C3)C4)cc2)nc1` [I3-G, 6-(4-((3r,5r,7r)-adamantan-1-yl)phenoxy)pyridin-3-amine], in that order: “ability to block Notch pathway activation in coculture assay” and “block Notch signalling to comparable levels to parental compound I3; also recorded: exhibit anti-Notch activity comparable to 6-(4-Tert-Butylphenoxy)Pyridin-3-Amine (I3)”.
For the molecule `CC(C)(C)c1cccc(Oc2ccc(N)cn2)c1` [I3-H, 6-(3-(tert-butyl)phenoxy)pyridin-3-amine], the “ability” value was “ability to block Notch pathway activation in coculture assay” and the “Notch inhibitory activity of derivatives compared to parental compound I3” value is reported as “block Notch signalling to comparable levels to parental compound I3; also recorded: exhibit anti-Notch activity comparable to 6-(4-Tert-Butylphenoxy)Pyridin-3-Amine (I3)”.
For `CC(C)(C)c1ccc(Oc2ccc(N)cc2F)cc1` [I3-I, 4-(4-(tert-butyl)phenoxy)-3-fluoroaniline] the same measures were “ability to block Notch pathway activation in coculture assay” and “appear to have enhanced activity”.
Turning to `CC(C)c1ccc(Oc2ccc(N)cc2)cc1` [I3-J, 4-(4-isopropylphenoxy)aniline], the “ability” value is “ability to block Notch pathway activation in coculture assay”.
`CC(C)(C)CC(C)(C)c1ccc(Oc2ccc(N)cn2)cc1` [I3-K, 6-(4-(2,4,4-trimethylpentan-2-yl)phenoxy)pyridin-3-amine]: the “ability” value is given as “ability to block Notch pathway activation in coculture assay”.
In the case of `Nc1ccc(Oc2ccc(C3CCCCC3)cc2)c(F)c1` [I3-L, 4-(4-cyclohexylphenoxy)-3-fluoroaniline], the “ability” value is recorded as “ability to block Notch pathway activation in coculture assay”.
For `CCC(C)(C)c1ccc(Oc2ccc(N)cc2F)cc1` [I3-M, 3-fluoro-4-(4-(tert-pentyl)phenoxy)aniline], the “ability” value is on record as “ability to block Notch pathway activation in coculture assay” and the “Notch inhibitory activity of derivatives compared to parental compound I3” value is listed as “block Notch signalling to comparable levels to parental compound I3; also recorded: exhibit anti-Notch activity comparable to 6-(4-Tert-Butylphenoxy)Pyridin-3-Amine (I3)”.
For `CCCC(C)(C)c1ccc(Oc2ccc(N)cn2)cc1` [I3-N, 6-(4-(2-methylpentan-2-yl)phenoxy)pyridin-3-amine], in that order: “ability to block Notch pathway activation in coculture assay” and “block Notch signalling to comparable levels to parental compound I3; also recorded: exhibit anti-Notch activity comparable to 6-(4-Tert-Butylphenoxy)Pyridin-3-Amine (I3)”.
Turning to `Nc1ccc(Oc2ccc(C34CC5CC(CC(C5)C3)C4)cc2)cc1` [I3-O, 4-(4-((3r,5r,7r)-adamantan-1-yl)phenoxy)aniline], the “ability” value is “ability to block Notch pathway activation in coculture assay”.
On the same count and under the same terms, the result for `Nc1ccc(Oc2ccc(C34CC5CC(CC(C5)C3)C4)cc2)c(F)c1` [I3-P, 4-(4-((3r,5r,7r)-adamantan-1-yl)phenoxy)-3-fluoroaniline] reads “ability to block Notch pathway activation in coculture assay”.
